Assay results reported in article PMC12459184, “Design, synthesis, and bioevaluation of pyrazole-containing tubulin polymerisation inhibitors based on conformational constraint strategy” (Journal of Enzyme Inhibition and Medicinal Chemistry, 2025).
Read-outs that look alike come from different tables or passages of the source.

Tests used:
PC-3 cells [1] = test: MTT antiproliferative assay, PC-3; type: cell-based; settings: Homo sapiens, 72 h drug exposure, read-out: IC50 (μM) ± SD PC-3
Protocol: (§1) All cell lines tested in this study were purchased from the American Type Culture Collection (ATCC, Manassas, VA). SGC-7901 (human gastric adenocarcinoma), HCT-116 (human colon carcinoma), and A549 (human pulmonary carcinoma) cells were cultured in RPMI-1640 medium containing 10% foetal serum (FBS) and 1% penicillin-streptomycin solution (100×). MCF-7 (human breast carcinoma) cells were cultured in DMEM medium containing 10% foetal serum (FBS) and 1% penicillin-streptomycin solution (100×). PC-3 (human prostate carcinoma) cells were cultured in Ham’s F-12K medium containing 10% foetal serum (FBS) and 1% penicillin-streptomycin solution (100×). All cells were cultured at 37 °C in a humidified atmosphere containing 5% CO2.
(§2) Cells grown in logarithmic phase were harvested and seeded onto 96-well cell plates at a density of 4 ∼ 5 × 10^3 cells per well (various from cell type) and were cultured for 24 h. Different concentrations of compounds were added into the wells, and the cells were cultured for another 72 h. The medium was removed, then 20 μL of MTT (5 mg/mL in PBS) was added to each well and the cells were incubated for 4 h. 150 μL of DMSO was added to each well to dissolve the formazan, and the absorbance at 490 nm of each well was measured by a microplate reader. IC50 values were calculated by SPSS software.

Bcl-2 = test: Western blot assay, Bcl-2; type: cell-based, human; settings: PC-3 cells
Protocol: (§3) The expression of cell apoptosis-related proteins (Bax, Bcl-2, and cleaved caspase-9) after treatment of 4k and 5a was also measured by western blot assay.
(§4) PC-3 cells in logarithmic phase were harvested and seeded onto culture plates, and were cultured for 24 h. […] The proteins of PC-3 cells were extracted by RIPA buffer containing 1% PMSF (Beyotime Biotechnology, China). The protein concentration was measured by BCA Assay Kit (SEVEN Biotech, China). Equal amounts and concentration of protein were diluted in 5× loading buffer (Beyotime, China) and denatured by boiled for 5 min. Protein samples were separated on 12.5% SDS-PAGE gels (EpiZyme, China) and transferred to PVDF membranes (Millipore Corporation, Billerica, MA, USA). The membranes were blocked in QuickBlockTM Block Buffer (SEVEN Biotech, China) for 10 min at room temperature. Then the membranes were incubated with the primary antibodies overnight at 4 °C, including Cyclin B1 (1:2000, Proteintech, China), CDK1 (1:5000, Proteintech, China), BAX (1:5000, Proteintech, China), Bcl2 (1:1000, Proteintech, China), Caspase 9/p35/p10 (1:1000, Proteintech, China), and β-actin (1:20 000, Proteintech, China). […] The protein signals were detected by using chemiluminescent reagents kit (NCM Biotech, China) and visualised with ChemiDocImaging System (Tanon 5200, China). Protein expressions was quantified by using Fiji/ImageJ software.

[2] = test system: microtubule network in PC-3 cells; test: Immunofluorescence assay of microtubule network; type: cell-based, human; settings: 50 nM, 24 h
Protocol: To evaluate the effects of 4k and 5a on intracellular microtubule, immunofluorescence assay was carried out to observe the changes of microtubule network in cell.
PC-3 cells in logarithmic phase were harvested and seeded onto 12-well cell plates with round coverslip on the bottom of each well at a density of 3 × 10^4 cells per well, and were cultured for 24 h. […] The medium was removed, and cells were washed with PBS twice, fixed with 4% formaldehyde in PBS for 30 min, then the solution was removed. Cells were washed with PBS twice, permeabilized with 0.2% (v/v) Triton X-100 in PBS for 30 min, then the solution was removed. Cells were washed with PBS twice, blocking the cells in 5% bovine serum albumin (BSA) for 30 min. Then BSA was removed, and cells were incubated with the primary α-tubulin antibody (Santa Cruz, CA) containing 2% BSA (v/v, 1: 100) overnight at 4 °C.
The following steps were operated in dark environment. The antibody was removed, then cells were washed with PBST twice and were added FITC-conjugated anti-mouse secondary antibody diluted (1:100) with 2% BSA in PBS and incubated at room temperature for 4 h. The cells were then washed with PBST twice, stained with 4′,6-diamidino-2-phenylindole (DAPI) for 30 min at room temperature, and washed with PBS twice. The round coverslips at the bottom of wells were taken out, and the images were photographed by a confocal microscope.

cleaved caspase-9 = test: Western blot assay, cleaved caspase-9; type: cell-based, human; settings: PC-3 cells, dose-dependent manner
Protocol: as §3, §4

[3] = test system: cyclin-dependent kinase 1 (CDK1); test: Western blot assay, CDK1; type: cell-based, human; settings: PC-3 cells, at the concentrations of 40 and 20 nM
Protocol: Additionally, western blot assay was employed to measure the expression level of cell cycle-related proteins cyclin-dependent kinase 1 (CDK1) and Cyclin B1.
as §4

Bax = test: Western blot assay, Bax; type: cell-based, human; settings: PC-3 cells
Protocol: as §3, §4

A549 cells = test: MTT antiproliferative assay, A549; type: cell-based; settings: Homo sapiens, 72 h drug exposure, read-out: IC50 (μM) ± SD A549
Protocol: as §1, §2

PC-3 cells [4] = test: Cell cycle analysis by flow cytometry; type: cell-based, human; settings: 24 h, vehicle 15%
Protocol: The G2/M phase of cell cycle involves mass physiological activities of microtubules, and tubulin polymerisation inhibitors could arrest cell cycle in G2/M phase by inhibiting microtubule polymerisation.
PC-3 cells in logarithmic phase were harvested and seeded onto 6-well cell plates at a density of 2.5 × 10^5 cells per well, and were cultured for 24 h. […] The cells were digested using trypsin and the suspended cells were harvested. Then the cells were washed with PBS and fixed in 75% ice-cold ethanol at 4 °C overnight. The fixed cells were harvested by centrifugation and washed with PBS, resuspended in 535 μL buffer containing 10 μL RNase (50 ×) and 25 μL PI (20 ×). After incubation at 37 °C in the dark for 30 min, the samples were filtered by nylon screen and detected by FACScan flow cytometry (BectoneDickinson, Franklin Lakes, NJ, USA).

human liver cells (L02) = test: MTT toxicity assay, normal cells L02; type: cell-based; settings: for IC50: Homo sapiens, read-out: IC50 (μM) ± SD L02; for SI-L: SI-L = IC50 (L02)/IC50 (PC-3)
Protocol: The toxicity of compounds 4k and 5a was also tested by using human umbilical vein endothelial cells (HUVEC) and human liver cells (L02).
as §2

SMILES	IC50 (PC-3 cells [1]) [µM]	expression of Bcl-2 (Bcl-2; western blot, 10, 20, 40 nM)	effect on microtubule network [2]	level of cleaved caspase-9 (cleaved caspase-9)	level of CDK1 [3]	expression of Bax (Bax; western blot, 20, 40 nM)	IC50 (A549 cells) [µM]	proportion of cells in G2/M phase (PC-3 cells [4]; 10–40 nM)	IC50 (human liver cells (L02); 72 h drug exposure, MTT assay, normal cells) [µM]	SI-L (human liver cells (L02))	expression of Bcl-2 (Bcl-2; western blot, 5, 20, 40 nM)	expression of Bax (Bax; western blot, 10, 20, 40 nM)	proportion of cells in G2/M phase (PC-3 cells [4]; 70 nM) [%]	proportion of cells in G2/M phase (PC-3 cells [4]; 100 nM) [%]	IC50 (human liver cells (L02); 72 h) [µM]
COc1cc(C(=O)c2nn(-c3ccc(N)cc3)cc2N)cc(OC)c1OC [4k, (4-amino-1–(4-aminophenyl)-1H-pyrazol-3-yl)(3,4,5-trimethoxyphenyl)methanone]	0.015 ± 0.004	significantly decreased	microtubule network was destroyed	increase	increase	significantly increased	0.04 ± 0.012	33–71%	0.025 ± 0.008	1.713					
COc1cc(C2=NCC(=O)Nc3cn(-c4ccccc4)nc32)cc(OC)c1OC [5a, 2-Phenyl-8–(3,4,5-trimethoxyphenyl)-2,6-dihydropyrazolo[4,3-e][1,4]diazepin-5(4H)-one]	0.006 ± 0.002		microtubule network was destroyed	increase	increase		0.063 ± 0.017			35.00	significantly decreased	significantly increased	35	71	0.204 ± 0.056
